Experimental data taken from patent US9744171B2, “Positive allosteric modulators for melanocortin receptors” (Vanderbilt University, priority 2012, dated 2017).

Experiment: High fat diet-induced weight gain in mice, osmotic minipump treatment
Type: in vivo
Method: FIG. 6 provides a bar graph showing a reduction in high fat diet-induced weight gain in mice by treatment with VU0055768. Wild type 12 week old male C57BL/6J mice were placed on a high fat diet for 5 days. Mice were then implanted subcutaneously with Alzet csmotic minipumps filled with vehicle (25% DMSO, 25% saline, 50% EtOH; n=6) or VU0055768 (25% compound in DMSO, 25% saline, 50% EtOH, n=5) so as to deliver 2.5 mg/kg/day of VU0055768. Mice were maintained on ad libitum access to water and high fat chow, and body weights were measured at the end of an additional 9 days. Bars indicate the mean and standard error of the data, and show a greater than 50% reduction in weight gain as a result of treatment with VU0055768
Eleven 12 weeks old Wt C57 mice were placed on high fat diet for 5 days. Osmotic pumps were filled with vehicle (25% DMSO, 25% saline, 50% EtOH) or VU0055768 (25% compound in DMSO, 25% saline, 50% EtOH) as to deliver 2.5 mg/kg/day, and were then inserted subcutaneously (6 vehicle, 5 compound) into the mice. The mice were fed ad-libidum with high fat diet. Mouse and food weight was measured daily. Statistical analysis of the results was t-test.

**Q.** Which “reduction in weight gain” value (C57BL/6J mice on high fat diet, 2.5 mg/kg/day subcutaneous osmotic minipump, body weights after additional 9 days, vs vehicle) does the source give for NCCc1c(-c2ccccc2)n(-c2ccccc2)c2ccccc12 [VU0055768] here?
**A.** greater than 50%

**Q.** What about the weight gain (Wt C57 mice on high fat diet, 2.5 mg/kg/day subcutaneous osmotic pump, t-test vs vehicle) of the same compound?
**A.** significantly reduced weight gain
